Measurements: ChEMBL document CHEMBL3885881, “DrugMatrix”

Organism: Rattus norvegicus
Experiment: DrugMatrix - Regimen: Daily Repeat
Type: toxicity, organism-based, Sprague-Dawley
Parameters: regimen Daily Repeat, gender Male, age 6-8 weeks
Conditions: in vivo, po, route oral GAVAGE, vehicle 100 % WATER; for ABSOLUTE BASOPHIL / ABSOLUTE EOSINOPHIL / ABSOLUTE LYMPHOCYTE / ABSOLUTE MONOCYTE / ABSOLUTE SEGMENTED NEUTROPHIL / BASOPHIL / EOSINOPHIL / ERYTHROCYTE COUNT / HEMATOCRIT / HEMOGLOBIN / LEUKOCYTE COUNT / LYMPHOCYTE / MEAN CORPUSCULAR HEMOGLOBIN / MEAN CORPUSCULAR HEMOGLOBIN CONCENTRATION / MEAN CORPUSCULAR VOLUME / MONOCYTE / NEUTROPHIL / NUCLEATED RED BLOOD CELLS / PLATELET COUNT: tissue Blood; for ALANINE AMINOTRANSFERASE / ALBUMIN / ALKALINE PHOSPHATASE / ASPARTATE AMINOTRANSFERASE / BLOOD UREA NITROGEN / CARBON DIOXIDE / CHLORIDE / CHOLESTEROL / CREATINE PHOSPHOKINASE / CREATININE / GLUCOSE / LACTATE DEHYDROGENASE / LIPASE / PHOSPHORUS / POTASSIUM / SODIUM / TOTAL BILIRUBIN / TOTAL PROTEIN / URIC ACID: tissue Plasma
[1] = 0 mg/kg, 72 h, dose level Control, time 3 day
[2] = 0 mg/kg, 120 h, dose level Control, time 5 day
[3] = 10 mg/kg, 72 h, dose level Low, time 3 day

Compound: CCN(CC)CC#CCOC(=O)C(O)(c1ccccc1)C1CCCCC1 (centres undefined) [OXYBUTYNIN]
- ABSOLUTE BASOPHIL [1]: 0 CELLS/uL
- ABSOLUTE EOSINOPHIL [1]: 24 CELLS/uL
- ABSOLUTE LYMPHOCYTE [1]: 13105 CELLS/uL
- ABSOLUTE MONOCYTE [1]: 76 CELLS/uL
- ABSOLUTE SEGMENTED NEUTROPHIL [1]: 2145 CELLS/uL
- BASOPHIL [1]: 0%
- EOSINOPHIL [1]: 0.17%
- ERYTHROCYTE COUNT [1]: 5.81 x10E6/uL
- HEMATOCRIT [1]: 35.6%
- HEMOGLOBIN [1]: 13.72 G/DL
- LEUKOCYTE COUNT [1]: 15.35 x10E3/uL
- LYMPHOCYTE [1]: 85.5%
- MEAN CORPUSCULAR HEMOGLOBIN [1]: 23.62 pg
- MEAN CORPUSCULAR HEMOGLOBIN CONCENTRATION [1]: 38.55 G/DL
- MEAN CORPUSCULAR VOLUME [1]: 61.23 fL
- MONOCYTE [1]: 0.5%
- NEUTROPHIL [1]: 13.83%
- NUCLEATED RED BLOOD CELLS [1]: 0 /100WBC
- PLATELET COUNT [1]: 1189.83 x10E3/uL
- ALANINE AMINOTRANSFERASE [1]: 48.67 u/L
- ALBUMIN [1]: 4.27 G/DL
- ALKALINE PHOSPHATASE [1]: 335 u/L
- ASPARTATE AMINOTRANSFERASE [1]: 86.5 u/L
- BLOOD UREA NITROGEN [1]: 14.33 mg/dL
- CARBON DIOXIDE [1]: 29.17 mmol/L
- CHLORIDE [1]: 99.83 MEQ/L
- CHOLESTEROL [1]: 71.83 mg/dL
- CREATINE PHOSPHOKINASE [1]: 506.83 u/L
- CREATININE [1]: 0.18 mg/dL
- GLUCOSE [1]: 162.17 mg/dL
- LACTATE DEHYDROGENASE [1]: 264.5 u/L
- LIPASE [1]: 9.67 u/L
- PHOSPHORUS [1]: 11.92 mg/dL
- POTASSIUM [1]: 6.55 MEQ/L
- SODIUM [1]: 141.53 MEQ/L
- TOTAL BILIRUBIN [1]: 0.18 mg/dL
- TOTAL PROTEIN [1]: 5.87 G/DL
- URIC ACID [1]: 1.67 mg/dL
- ABSOLUTE BASOPHIL [2]: 0 CELLS/uL
- ABSOLUTE EOSINOPHIL [2]: 25.33 CELLS/uL
- ABSOLUTE LYMPHOCYTE [2]: 15680 CELLS/uL
- ABSOLUTE MONOCYTE [2]: 92.33 CELLS/uL
- ABSOLUTE SEGMENTED NEUTROPHIL [2]: 2102.33 CELLS/uL
- BASOPHIL [2]: 0%
- EOSINOPHIL [2]: 0.17%
- ERYTHROCYTE COUNT [2]: 6 x10E6/uL
- HEMATOCRIT [2]: 35.55%
- HEMOGLOBIN [2]: 14.12 G/DL
- LEUKOCYTE COUNT [2]: 17.9 x10E3/uL
- LYMPHOCYTE [2]: 87.33%
- MEAN CORPUSCULAR HEMOGLOBIN [2]: 23.65 pg
- MEAN CORPUSCULAR HEMOGLOBIN CONCENTRATION [2]: 39.77 G/DL
- MEAN CORPUSCULAR VOLUME [2]: 59.52 fL
- MONOCYTE [2]: 0.5%
- NEUTROPHIL [2]: 12%
- NUCLEATED RED BLOOD CELLS [2]: 0.17 /100WBC
- PLATELET COUNT [2]: 1325.67 x10E3/uL
- ALANINE AMINOTRANSFERASE [2]: 56.17 u/L
- ALBUMIN [2]: 4.23 G/DL
- ALKALINE PHOSPHATASE [2]: 371.5 u/L
- ASPARTATE AMINOTRANSFERASE [2]: 91 u/L
- BLOOD UREA NITROGEN [2]: 15.33 mg/dL
- CARBON DIOXIDE [2]: 27.67 mmol/L
- CHLORIDE [2]: 99.5 MEQ/L
- CHOLESTEROL [2]: 66.5 mg/dL
- CREATINE PHOSPHOKINASE [2]: 518.5 u/L
- CREATININE [2]: 0.18 mg/dL
- GLUCOSE [2]: 143.33 mg/dL
- LACTATE DEHYDROGENASE [2]: 238.83 u/L
- LIPASE [2]: 9.33 u/L
- PHOSPHORUS [2]: 10.68 mg/dL
- POTASSIUM [2]: 6.5 MEQ/L
- SODIUM [2]: 141.88 MEQ/L
- TOTAL BILIRUBIN [2]: 0.18 mg/dL
- TOTAL PROTEIN [2]: 6 G/DL
- URIC ACID [2]: 1.63 mg/dL
- ABSOLUTE BASOPHIL [3]: 0 CELLS/uL
- ABSOLUTE EOSINOPHIL [3]: 0 CELLS/uL
- ABSOLUTE LYMPHOCYTE [3]: 11373.67 CELLS/uL
- ABSOLUTE MONOCYTE [3]: 168.67 CELLS/uL
- ABSOLUTE SEGMENTED NEUTROPHIL [3]: 2324.33 CELLS/uL
- BASOPHIL [3]: 0%
- EOSINOPHIL [3]: 0%
- ERYTHROCYTE COUNT [3]: 5.85 x10E6/uL
- HEMATOCRIT [3]: 35.5%
- HEMOGLOBIN [3]: 13.87 G/DL
- LEUKOCYTE COUNT [3]: 13.87 x10E3/uL
- LYMPHOCYTE [3]: 82.33%
- MEAN CORPUSCULAR HEMOGLOBIN [3]: 23.77 pg
- MEAN CORPUSCULAR HEMOGLOBIN CONCENTRATION [3]: 39.1 G/DL
- MEAN CORPUSCULAR VOLUME [3]: 60.83 fL
- MONOCYTE [3]: 1.33%
- NEUTROPHIL [3]: 16.33%
- NUCLEATED RED BLOOD CELLS [3]: 0 /100WBC
- PLATELET COUNT [3]: 1157.33 x10E3/uL
- ALANINE AMINOTRANSFERASE [3]: 50 u/L
- ALBUMIN [3]: 4.03 G/DL
- ALKALINE PHOSPHATASE [3]: 314.33 u/L
- ASPARTATE AMINOTRANSFERASE [3]: 86 u/L
- BLOOD UREA NITROGEN [3]: 13.67 mg/dL
- CARBON DIOXIDE [3]: 28.33 mmol/L
- CHLORIDE [3]: 99.33 MEQ/L
- CHOLESTEROL [3]: 57.67 mg/dL
- CREATINE PHOSPHOKINASE [3]: 426.33 u/L
- CREATININE [3]: 0.12 mg/dL
- GLUCOSE [3]: 150.67 mg/dL
- LACTATE DEHYDROGENASE [3]: 120 u/L
- LIPASE [3]: 9 u/L
- PHOSPHORUS [3]: 12.43 mg/dL
- POTASSIUM [3]: 6.97 MEQ/L
- SODIUM [3]: 141.47 MEQ/L
- TOTAL BILIRUBIN [3]: 0.17 mg/dL
- TOTAL PROTEIN [3]: 5.57 G/DL
- URIC ACID [3]: 1.97 mg/dL
